Measurements: PubChem BioAssay (NCI)
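Following 48 hours of exposure in 96-well plates, responses at five concentrations were used to interpolate endpoints linearly. The concentration for full growth arrest is given as TGI.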

How the values were obtained:
Assay in all cases: NCI anticancer screen, dose series, 48 h
[1] = tested on: 786-0 renal
[2] = tested on: A549 NSCLC
[3] = tested on: ACHN renal
[4] = tested on: BT-549 breast
[5] = tested on: CAKI-1 renal
[6] = tested on: CCRF-CEM leukemia
[7] = tested on: COLO 205 colon
[8] = tested on: EKVX NSCLC
[9] = tested on: HCT-116 colon
[10] = tested on: HCT-15 colon
[11] = tested on: HL-60(TB) leukemia
[12] = tested on: HOP-62 NSCLC
[13] = tested on: HOP-92 NSCLC
[14] = tested on: HS 578T breast
[15] = tested on: HT29 colon
[16] = tested on: IGROV1 ovarian
[17] = tested on: K-562 leukemia
[18] = tested on: KM12 colon
[19] = tested on: LOX IMVI melanoma
[20] = tested on: M14 melanoma
[21] = tested on: MALME-3M melanoma
[22] = tested on: MCF7 breast
[23] = tested on: MDA-MB-435
[24] = tested on: MDA-N
[25] = tested on: MOLT-4 leukemia
[26] = tested on: NCI-H226 lung
[27] = tested on: NCI-H23 lung
[28] = tested on: NCI-H460 lung
[29] = tested on: NCI-H522 lung
[30] = tested on: NCI/ADR-RES ovarian
[31] = tested on: OVCAR-3 ovarian
[32] = tested on: OVCAR-4 ovarian
[33] = tested on: OVCAR-5 ovarian
[34] = tested on: OVCAR-8 ovarian
[35] = tested on: PC-3 prostate
[36] = tested on: RPMI-8226 leukemia
[37] = tested on: SF-268 CNS
[38] = tested on: SF-295 CNS
[39] = tested on: SK-MEL-2 melanoma
[40] = tested on: SK-MEL-28 melanoma
[41] = tested on: SK-MEL-5 melanoma
[42] = tested on: SK-OV-3 ovarian
[43] = tested on: SN12C renal
[44] = tested on: SNB-19 CNS
[45] = tested on: SNB-75 CNS
[46] = tested on: SR leukemia
[47] = tested on: SW-620 colon
[48] = tested on: TK-10 renal
[49] = tested on: U251 CNS
[50] = tested on: UACC-257 melanoma
[51] = tested on: UACC-62 melanoma
[52] = tested on: UO-31 renal
[53] = tested on: A498 renal
[54] = tested on: HCC-2998 colon
[55] = tested on: MDA-MB-231 breast
[56] = tested on: SF-539 CNS
[57] = tested on: DU-145 prostate
[58] = tested on: RXF 393 renal
[59] = tested on: T-47D breast

Q: Which results are given for COP(=O)(OC)C(N)CCSC (centres undefined)?
A: TGI [1]: > 100 µM; TGI [2]: > 100 µM; TGI [3]: > 100 µM; TGI [4]: > 100 µM; TGI [5]: > 100 µM; TGI [6]: > 100 µM; TGI [7]: > 100 µM; TGI [8]: > 100 µM; TGI [9]: > 100 µM; TGI [10]: > 100 µM; TGI [11]: > 100 µM; TGI [12]: > 100 µM; TGI [13]: > 100 µM; TGI [14]: > 100 µM; TGI [15]: > 100 µM; TGI [16]: > 100 µM; TGI [17]: > 100 µM; TGI [18]: > 100 µM; TGI [19]: > 100 µM; TGI [20]: > 100 µM; TGI [21]: > 100 µM; TGI [22]: > 100 µM; TGI [23]: > 100 µM; TGI [24]: > 100 µM; TGI [25]: > 100 µM; TGI [26]: > 100 µM; TGI [27]: > 100 µM; TGI [28]: > 100 µM; TGI [29]: > 100 µM; TGI [30]: > 100 µM; TGI [31]: > 100 µM; TGI [32]: > 100 µM; TGI [33]: > 100 µM; TGI [34]: > 100 µM; TGI [35]: > 100 µM; TGI [36]: > 100 µM; TGI [37]: > 100 µM; TGI [38]: > 100 µM; TGI [39]: > 100 µM; TGI [40]: > 100 µM; TGI [41]: > 100 µM; TGI [42]: > 100 µM; TGI [43]: > 100 µM; TGI [44]: > 100 µM; TGI [45]: > 100 µM; TGI [46]: > 100 µM; TGI [47]: > 100 µM; TGI [48]: > 100 µM; TGI [49]: > 100 µM; TGI [50]: > 100 µM; TGI [51]: > 100 µM; TGI [52]: > 100 µM

Q: Which TGI [1] does the source give for CC(=O)NC1C(CO)O[C@@H]2OC(C)(C)O[C@H]12 (some centres undefined) here?
A: > 100 µM

Q: And the TGI [53]?
A: > 100 µM

Q: And the TGI [2]?
A: > 100 µM

Q: What about the TGI [3] of the same molecule?
A: > 100 µM

Q: And the TGI [4]?
A: > 100 µM

Q: And the TGI [5]?
A: > 100 µM

Q: What about the TGI [6] of the same molecule?
A: > 100 µM

Q: And the TGI [8]?
A: > 100 µM

Q: And the TGI [54]?
A: > 100 µM

Q: And the TGI [9]?
A: > 100 µM

Q: What about the TGI [10] of the same molecule?
A: > 100 µM

Q: What about the TGI [11] of the same molecule?
A: > 100 µM

Q: What about the TGI [12] of the same molecule?
A: > 100 µM

Q: And the TGI [13]?
A: > 100 µM

Q: What about the TGI [14] of the same molecule?
A: > 100 µM

Q: And the TGI [15]?
A: > 100 µM

Q: And the TGI [16]?
A: > 100 µM

Q: What about the TGI [18] of the same molecule?
A: > 100 µM

Q: What about the TGI [19] of the same molecule?
A: > 100 µM

Q: And the TGI [20]?
A: > 100 µM

Q: What about the TGI [21] of the same molecule?
A: > 100 µM

Q: What about the TGI [22] of the same molecule?
A: > 100 µM

Q: What about the TGI [55] of the same molecule?
A: > 100 µM

Q: What about the TGI [23] of the same molecule?
A: > 100 µM

Q: What about the TGI [24] of the same molecule?
A: > 100 µM

Q: What about the TGI [25] of the same molecule?
A: > 100 µM

Q: What about the TGI [27] of the same molecule?
A: > 100 µM

Q: And the TGI [28]?
A: > 100 µM

Q: What about the TGI [29] of the same molecule?
A: > 100 µM

Q: And the TGI [30]?
A: > 100 µM

Q: And the TGI [31]?
A: > 100 µM

Q: What about the TGI [32] of the same molecule?
A: > 100 µM

Q: What about the TGI [33] of the same molecule?
A: > 100 µM

Q: What about the TGI [34] of the same molecule?
A: > 100 µM

Q: What about the TGI [35] of the same molecule?
A: > 100 µM

Q: And the TGI [36]?
A: > 100 µM

Q: What about the TGI [37] of the same molecule?
A: > 100 µM

Q: What about the TGI [38] of the same molecule?
A: > 100 µM

Q: And the TGI [56]?
A: > 100 µM

Q: What about the TGI [39] of the same molecule?
A: > 100 µM

Q: What about the TGI [40] of the same molecule?
A: > 100 µM

Q: And the TGI [43]?
A: > 100 µM

Q: What about the TGI [44] of the same molecule?
A: > 100 µM

Q: And the TGI [45]?
A: > 100 µM

Q: And the TGI [47]?
A: > 100 µM

Q: What about the TGI [48] of the same molecule?
A: > 100 µM

Q: And the TGI [49]?
A: > 100 µM

Q: What about the TGI [50] of the same molecule?
A: > 100 µM

Q: What about the TGI [51] of the same molecule?
A: > 100 µM

Q: And the TGI [52]?
A: > 100 µM

Q: O=C(CC(O)(C(F)(F)F)C(F)(F)F)C(CCCl)C(O)(C(F)(F)F)C(F)(F)F (centres undefined) was tested. Which TGI [1] did it give?
A: > 100 µM

Q: What about the TGI [53] of the same molecule?
A: 64.8 µM

Q: What about the TGI [2] of the same molecule?
A: > 100 µM

Q: What about the TGI [3] of the same molecule?
A: > 100 µM

Q: What about the TGI [5] of the same molecule?
A: 77.1 µM

Q: What about the TGI [6] of the same molecule?
A: > 100 µM

Q: And the TGI [7]?
A: 26.8 µM

Q: What about the TGI [57] of the same molecule?
A: > 100 µM

Q: What about the TGI [8] of the same molecule?
A: > 100 µM

Q: What about the TGI [54] of the same molecule?
A: > 100 µM

Q: What about the TGI [9] of the same molecule?
A: > 100 µM

Q: What about the TGI [10] of the same molecule?
A: > 100 µM

Q: And the TGI [11]?
A: 86.5 µM

Q: What about the TGI [12] of the same molecule?
A: > 100 µM

Q: And the TGI [14]?
A: > 100 µM

Q: What about the TGI [15] of the same molecule?
A: 91.5 µM

Q: What about the TGI [16] of the same molecule?
A: > 100 µM

Q: What about the TGI [17] of the same molecule?
A: > 100 µM

Q: And the TGI [18]?
A: > 100 µM

Q: And the TGI [19]?
A: > 100 µM

Q: What about the TGI [20] of the same molecule?
A: > 100 µM

Q: What about the TGI [21] of the same molecule?
A: 76.1 µM

Q: And the TGI [22]?
A: > 100 µM

Q: And the TGI [55]?
A: > 100 µM

Q: What about the TGI [23] of the same molecule?
A: > 100 µM

Q: What about the TGI [24] of the same molecule?
A: > 100 µM

Q: What about the TGI [25] of the same molecule?
A: > 100 µM

Q: And the TGI [26]?
A: > 100 µM

Q: What about the TGI [27] of the same molecule?
A: 83.9 µM

Q: And the TGI [28]?
A: 88.6 µM

Q: And the TGI [29]?
A: > 100 µM

Q: What about the TGI [30] of the same molecule?
A: 46.7 µM

Q: What about the TGI [31] of the same molecule?
A: 65.3 µM

Q: And the TGI [32]?
A: > 100 µM

Q: And the TGI [33]?
A: > 100 µM

Q: And the TGI [34]?
A: 83.9 µM

Q: And the TGI [35]?
A: > 100 µM

Q: What about the TGI [36] of the same molecule?
A: 61.1 µM

Q: What about the TGI [58] of the same molecule?
A: 70.9 µM

Q: What about the TGI [37] of the same molecule?
A: > 100 µM

Q: And the TGI [38]?
A: > 100 µM

Q: What about the TGI [56] of the same molecule?
A: > 100 µM

Q: And the TGI [39]?
A: > 100 µM

Q: And the TGI [40]?
A: > 100 µM

Q: What about the TGI [41] of the same molecule?
A: 71 µM

Q: What about the TGI [42] of the same molecule?
A: > 100 µM

Q: What about the TGI [43] of the same molecule?
A: 67 µM

Q: And the TGI [44]?
A: > 100 µM

Q: What about the TGI [45] of the same molecule?
A: 96.4 µM

Q: What about the TGI [46] of the same molecule?
A: > 100 µM

Q: What about the TGI [47] of the same molecule?
A: > 100 µM

Q: And the TGI [59]?
A: 78 µM

Q: And the TGI [48]?
A: > 100 µM

Q: What about the TGI [49] of the same molecule?
A: > 100 µM

Q: What about the TGI [50] of the same molecule?
A: 91.2 µM

Q: What about the TGI [51] of the same molecule?
A: > 100 µM

Q: And the TGI [52]?
A: 73.3 µM
